The values below come from PMC9247985, “Accessing Diverse Pyridine-Based Macrocyclic Peptides by a Two-Site Recognition Pathway” (Journal of the American Chemical Society, 2022).

Where a SMILES comes first, the peptide text is derived from it. Where no end group is shown, it is not given here. The star is where a group is joined. 5FAM = O=C1OC2(c3ccc(O)cc3Oc3cc(O)ccc32)c2ccc(C(=O)*)cc21

Broadly, the Kd is a measure of binding affinity in units of concentration. The IC50 is the midpoint of a concentration-inhibition curve.

Sequence of MBP-MroD (A0A136PPB2 1-366): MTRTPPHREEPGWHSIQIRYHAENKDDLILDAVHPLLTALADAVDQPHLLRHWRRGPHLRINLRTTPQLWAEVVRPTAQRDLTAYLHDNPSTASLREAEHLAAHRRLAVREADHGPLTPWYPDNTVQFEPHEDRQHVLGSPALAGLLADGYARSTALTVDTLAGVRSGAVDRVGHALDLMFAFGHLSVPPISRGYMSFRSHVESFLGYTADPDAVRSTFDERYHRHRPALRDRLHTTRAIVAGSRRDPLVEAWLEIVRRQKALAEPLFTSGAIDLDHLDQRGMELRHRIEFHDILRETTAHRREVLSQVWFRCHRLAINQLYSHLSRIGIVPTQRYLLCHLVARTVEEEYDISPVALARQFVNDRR

The first test addresses MBP-MroD (Micromonospora rosaria, UniProt A0A136PPB2). Briefly: biochemical.
Conditions: not given
The source says:
Experiments were done in triplicates. Stock
(1 picture or pasted object on this page, not shown here)
Compound `CC[C@H](C)[C@H](NC(=O)[C@@H](NC(=O)[C@H](Cc1c[nH]c2ccccc12)NC(=O)[C@H](CO)NC(=O)CNC(=O)[C@H](CC(C)C)NC(=O)[C@H](Cc1c[nH]c2ccccc12)NC(=O)CNC(=O)[C@H](CO)NC(=O)[C@H](C)NC(=O)CNC(=O)[C@@H](NC(=O)[C@H](CCC(=O)O)NC(=O)[C@@H](NC(=O)[C@H](CC(N)=O)NC(=O)CNC(=O)[C@H](CC(C)C)NC(=O)CNC(=O)CNC(=O)[C@@H](NC(=O)[C@H](CO)NC(=O)[C@H](CC(C)C)NC(=O)[C@H](C)NC(=O)[C@H](C)NC(=O)[C@H](CC(C)C)NC(=O)[C@H](CCC(=O)O)NC(=O)[C@H](CCC(=O)O)NC(=O)[C@H](CC(=O)O)NC(=O)[C@@H](NC(=O)[C@H](C)NC(=O)[C@H](CC(C)C)NC(=O)[C@H](CC(=O)O)NC(=O)[C@H](CC(C)C)NC(=O)[C@H](CC(=O)O)NC(=O)[C@@H](NC(=O)[C@@H](NC(=O)[C@H](CC(=O)O)NC(=O)[C@H](CC(C)C)NC(=O)[C@H](CC(=O)O)NC(=O)[C@H](CO)NC(=O)c1ccc2c(c1)C(=O)OC21c2ccc(O)cc2Oc2cc(O)ccc21)[C@@H](C)CC)C(C)C)C(C)C)C(C)C)[C@@H](C)O)C(C)C)C(C)C)C(=O)O` [fluorescein-Δ12MroA1] (5FAM-SDLDIVDLDLAVDEELAALSVGGLGNTEVGASGWLGSWVI-OH) gave a Kd of approximately 12 nM.

A further test concerns MroB/C. Briefly: MroB/C dehydration (Dha formation) of in vitro translated MroA2 variants, MALDI-TOF-MS. The class given is biochemical, Micromonospora rosaria. Conditions: Table S6, MroA2 multi-site variants, 2 μM MBP-MroB, 2 μM MBP-MroC, 1 h room temperature. The procedure: in 2 mM NaOAc pH 5.2, and the concentration was assayed using 260 nm absorbance. This tRNA Glu (CUC) was t he n used in the MroBC-catalyzed dehydration assay.
In vitro translation and enzymati c as s ays (dehydration and cyclization). In a 0.65 mL protein low-binding Eppendorf tube placed on ice, 0.75 μL of purified mroA variant template DNA was mixed with 0.75 μL of Solution B and 1 μL of Solution A of PURExpress I n vi t ro Protein Synthesis Kit (E6800L) purchased from NEB (total volume of reaction is 2.5 μL ). The translation reactions were performed at 37°C for 1 hon an aluminum block.
For a full MroBCD substrate scope investigation, a total translation volume for each variant of 7.5 μL was performed.
1.5 μL of 90 mM i odoacet am i de (IAA) was added to quench d ithiothreitol (DTT) in the translation reaction mixture, a thiol -based nucleophile that can react with electrophilic dehydroalanines generated from MroBC-cat al yzed dehydration assays. […]
In the 6 μL part, 10.2 μL of the enzyme mix containing enzymes and cofactors was added along with 1.8 μ L 90 mM ATP (pH 7.5) ,which wasused to initiate the reaction . The enzyme mix was made by adding these components in the following order: HEPES pH 7.5, MgCl2, glutamate, T. bispora tRNAGl u(CUC), thermostable inorganic pyrophosphatase (TIPP), TEV (L56V/S135G/S219V) (w/w ratio with a total amount of MBP-tagged protein = 1: 10), MBP-MroB, MBP-MroC, and T. bispora GluRS. The enzyme mix was incubated 25 min at room temper at ure before adding to the translation product to facilitate in situ TEV -catalyzed cleavage of MBP from MBP -MroB and MBP - MroC. The enzymatic reaction proceeded for 1 h at room temperature. Overal l , the concentration of components in the 18 μL reaction mix is as follows : 50 mM HEPES pH 7.5, 5 mM MgCl2, gl utamate 1 mM, 3 μM T. bi s por a tRNAGlu, 1 μM T. bispora GluRS, 2 μM MBP-MroB, 2 μM MBP-MroC, […], 0.027 U/μL TIPP, and 5 mM IAA. In addition, the […] was incubated with the same buffer lacking enzymes and tRNA as a translation control.
After incubation, the enzyme reaction (18 μ L) was split into two equal parts. One part was treated with MBP-MroD such that the final concentration of MBP-MroD is 3 μM, and the other part was added the same volume but with buffer lacking MBP-MroD (50 mM HEPES, 300 mM NaCl, 2.5% glycerol, 0.5 mM TCEP).The reaction further proceeded for 1.5 h at room temperature. All reaction mixture was then desalted with solid- phase extraction using Ziptip with 0.6 μL C18 resin (EMD Milli por e ) and crystallized on an MTP384 steel target plate using either sa t ur at e d sina pi c ac i d or 50 mg/mL Super DHB [ dissolved in 60% acetonitrile and 0.1% trifluoroacetic acid (TFA )] as the matrix. T he crystallized spots were then analyzed using MALDI-TOF-MS (Bruker Ultraflex). The external standard for MALDI - TOF-MS analysis is ProteoMass Peptide and Protein MALDI -MS Calibration Kit ( Si g ma ) In this work, TEV was used in every variant tested. […]
“SGYHFHNRSWLI [54-V8R, Arg variant of multi-site variant 54]” returned a Dha formation of 2 Dha.
The compound “SGDAMRWRSWLI [53-A8R, Arg variant of multi-site variant 53]” gave a Dha formation of 2 Dha.
Same read-out and setting: next, “SGYDRQRSWLI [56-Y7R, Arg variant of multi-site variant 56]”: 2 Dha; “SGRYAGRSWLI [39-W7R, Arg variant of multi-site variant 39]”: 2 Dha.
For “SGQGRNRSWLI [24-V7R, Arg variant of multi-site variant 24]”, the Dha formation amounted to 2 Dha.
On the same count and under the same terms, next, “SGIAKEVRSWLI [47-Q8R, Arg variant of multi-site variant 47]”: 2 Dha.
Still for that read-out and setting: under “SGHYKPQRSWLI [55-A8R, Arg variant of multi-site variant 55]” stands 2 Dha; under “SGLQHGKRSWLI [52-Y8R, Arg variant of multi-site variant 52]”, 2 Dha.
“SGGYRPRSWLI [38-H7R, Arg variant of multi-site variant 38]” came in with a Dha formation of 2 Dha.
Still for that read-out and setting: under “SGREFARSWLI [35-N7R, Arg variant of multi-site variant 35]” stands 2 Dha.
Consider “SGKALERSWLI [29-F7R, Arg variant of multi-site variant 29]”, for which the Dha formation result is reported as “M ix of 1, 2 Dha”.

For the next test, the system named is MroB.
Experiment: not given
Conditions: read-out: IC50 MroB; SEM.
For `CC[C@H](C)[C@H](NC(=O)[C@H](CC(=O)O)NC(=O)[C@H](CC(C)C)NC(=O)[C@H](CC(=O)O)NC(=O)[C@@H](N)CO)C(=O)N[C@H](C(=O)N[C@@H](CC(=O)O)C(=O)N[C@@H](CC(C)C)C(=O)N[C@@H](CC(=O)O)C(=O)N[C@@H](CC(C)C)C(=O)N[C@@H](C)C(=O)N[C@H](C(=O)N[C@@H](CC(=O)O)C(=O)N[C@@H](CCC(=O)O)C(=O)N[C@@H](CCC(=O)O)C(=O)N[C@@H](CC(C)C)C(=O)N[C@@H](C)C(=O)N[C@@H](C)C(=O)N[C@@H](CC(C)C)C(=O)N[C@@H](CO)C(=O)N[C@H](C(=O)NCC(=O)NCC(=O)N[C@@H](CC(C)C)C(=O)NCC(=O)N[C@@H](CC(N)=O)C(=O)N[C@H](C(=O)N[C@@H](CCC(=O)O)C(=O)N[C@H](C(=O)NCC(=O)N[C@@H](C)C(=O)N[C@@H](CO)C(=O)NCC(=O)N[C@@H](Cc1c[nH]c2ccccc12)C(=O)N[C@@H](CC(C)C)C(=O)NCC(=O)N[C@@H](CO)C(=O)N[C@@H](Cc1c[nH]c2ccccc12)C(=O)N[C@H](C(=O)N[C@H](C(=O)OC)[C@@H](C)CC)C(C)C)C(C)C)[C@@H](C)O)C(C)C)C(C)C)C(C)C` [Δ12MroA1-COOMe] (H-SDLDIVDLDLAVDEELAALSVGGLGNTEVGASGWLGSWVI-OMe), the IC50 was found to be 4200 ± 1700 nM.

For a further test, the target named is MroD (Micromonospora rosaria, UniProt A0A136PPB2).
Sequence of MroD (A0A136PPB2 entry or part of it): as the sequence (A0A136PPB2 1-366) above
Experiment: not given
Conditions: read-out: IC50 MroD; SEM.
Consider “SDLDIVDLDLAVDEELAALSVGGLGNTEVGA [Δ12MroA1 leader]”, for which the IC50 came out at 16000 ± 4400 nM.
“SDLDIVDLDLAVDEELAALSVGGLGNTEVGASGWLGSWVG [Δ12MroA1-I9G]”: the half-inhibitory concentration (IC50) stood at 910 ± 90 nM.
For the compound “SDLDIVDLDLAVDEELAALSVGGLGNTEVGASGWLGSWVI [Δ12MroA1]”, the IC50 stood at 90 ± 20 nM.
`CC[C@H](C)[C@H](NC(=O)[C@H](CC(=O)O)NC(=O)[C@H](CC(C)C)NC(=O)[C@H](CC(=O)O)NC(=O)[C@@H](N)CO)C(=O)N[C@H](C(=O)N[C@@H](CC(=O)O)C(=O)N[C@@H](CC(C)C)C(=O)N[C@@H](CC(=O)O)C(=O)N[C@@H](CC(C)C)C(=O)N[C@@H](C)C(=O)N[C@H](C(=O)N[C@@H](CC(=O)O)C(=O)N[C@@H](CCC(=O)O)C(=O)N[C@@H](CCC(=O)O)C(=O)N[C@@H](CC(C)C)C(=O)N[C@@H](C)C(=O)N[C@@H](C)C(=O)N[C@@H](CC(C)C)C(=O)N[C@@H](CO)C(=O)N[C@H](C(=O)NCC(=O)NCC(=O)N[C@@H](CC(C)C)C(=O)NCC(=O)N[C@@H](CC(N)=O)C(=O)N[C@H](C(=O)N[C@@H](CCC(=O)O)C(=O)N[C@H](C(=O)NCC(=O)N[C@@H](C)C(=O)N[C@@H](CO)C(=O)NCC(=O)N[C@@H](Cc1c[nH]c2ccccc12)C(=O)N[C@@H](CC(C)C)C(=O)NCC(=O)N[C@@H](CO)C(=O)N[C@@H](Cc1c[nH]c2ccccc12)C(=O)N[C@H](C(=O)N[C@H](C(=O)OC)[C@@H](C)CC)C(C)C)C(C)C)[C@@H](C)O)C(C)C)C(C)C)C(C)C` [Δ12MroA1-COOMe] (H-SDLDIVDLDLAVDEELAALSVGGLGNTEVGASGWLGSWVI-OMe): the IC50 was found to be 400 ± 60 nM.
As for “SDLDIVDLDLAVDEELAALSVGGLGNTEVGASGWLGSGVI [Δ12MroA1-W7G]”, the IC50 is 2400 ± 300 nM.
On the same count and under the same terms, next, “SDLDIVDLDLAVDEELAALSVGGLGNTEVGASGWLGSWGI [Δ12MroA1-V8G]”: 1700 ± 400 nM.
